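These data come from cells grown in 96-well plates and exposed to compound for 48 hours at five concentrations. GI50: concentration for 50% inhibition of growth. TGI marks complete inhibition of growth.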
Key:
Assay in all cases: NCI anticancer screen, dose series, 48 h
K-562 leukemia = test system: K-562 leukemia
NCI-H23 lung = test system: NCI-H23 lung
SK-MEL-5 melanoma = test system: SK-MEL-5 melanoma
RXF 393 renal = test system: RXF 393 renal
UACC-62 melanoma = test system: UACC-62 melanoma
MOLT-4 leukemia = test system: MOLT-4 leukemia
OVCAR-3 ovarian = test system: OVCAR-3 ovarian
SW-620 colon = test system: SW-620 colon
MALME-3M melanoma = test system: MALME-3M melanoma
HS 578T breast = test system: HS 578T breast

Row | SMILES | TGI (K-562 leukemia) [µM] | TGI (NCI-H23 lung) [µM] | TGI (SK-MEL-5 melanoma) [µM] | TGI (RXF 393 renal) [µM] | TGI (UACC-62 melanoma) [µM] | TGI (MOLT-4 leukemia) [µM] | TGI (OVCAR-3 ovarian) [µM] | TGI (SW-620 colon) [µM] | TGI (MALME-3M melanoma) [µM] | GI50 (K-562 leukemia) [µM] | GI50 (NCI-H23 lung) [µM] | GI50 (SK-MEL-5 melanoma) [µM] | GI50 (UACC-62 melanoma) [µM] | GI50 (MOLT-4 leukemia) [µM] | GI50 (OVCAR-3 ovarian) [µM] | GI50 (SW-620 colon) [µM] | GI50 (HS 578T breast) [µM] | TGI (HS 578T breast) [µM] | GI50 (MALME-3M melanoma) [µM] | GI50 (RXF 393 renal) [µM]
1 | Cc1ccc(S(=O)(=O)NNS(C)(=O)=O)cc1 | > 100 | > 100 | > 100 | > 100 | > 100 | > 100 | > 100 | > 100 | > 100 | – | – | – | – | – | – | – | – | – | – | –
2 | Cc1ccc(Nc2nc(-c3ccc(-c4ccc([N+](=O)[O-])cc4)o3)cs2)cc1 | > 100 | 94.5 | – | – | > 100 | > 100 | > 100 | > 100 | > 100 | – | – | – | – | – | – | – | – | – | – | –
3 | CC(=O)Nc1ccc(/C=c2\sc3nnc(-c4cccnc4)n3c2=O)cc1 | 70.1 | 31.4 | 37.8 | 37.2 | 27.7 | 64.3 | 34 | 34.2 | 37.3 | – | – | – | – | – | – | – | – | – | – | –
4 | CC1=C2C=CC(=O)C[C@@]2(C)CCC1 | > 100 | > 100 | > 100 | > 100 | > 100 | > 100 | > 100 | > 100 | > 100 | – | – | – | – | – | – | – | – | – | – | –
5 | O=C1[C@@H]2C(c3ccccc3[N+](=O)[O-])=NO[C@@H]2C(=O)N1c1ccc(Cc2ccc(N3C(=O)[C@H]4C(c5ccccc5[N+](=O)[O-])=NO[C@H]4C3=O)cc2)cc1 | > 100 | > 100 | > 100 | > 100 | > 100 | > 100 | > 100 | > 100 | > 100 | – | – | – | – | – | – | – | – | – | – | –
6 | Cc1[nH]c2cc([N+](=O)[O-])ccc2c1[N+](=O)[O-] | > 100 | 58.6 | 27.6 | 54.1 | – | 71.4 | > 100 | 97.9 | 54.4 | – | – | – | – | – | – | – | – | – | – | –
7 | Cc1c(C(N)=O)sc2nc(C)n(/N=c3\scc(-c4ccccc4)n3Cc3ccccc3)c(=O)c12 | > 100 | > 100 | 3.75 | – | 83.2 | > 100 | 8.58 | > 100 | > 100 | 8.89 | 3.12 | 1.81 | 4.26 | 24.6 | 2.28 | 3.16 | 3.85 | > 100 | 2.18 | –
8 | O=C(N/C(=C\c1ccc(/C=C(\NC(=O)c2ccccc2)c2nc3c(O)nc(S)nc3[nH]2)cc1)c1nc2c(O)nc(S)nc2[nH]1)c1ccccc1 | > 100 | > 100 | > 100 | > 100 | > 100 | > 100 | > 100 | > 100 | > 100 | – | – | – | – | – | – | – | – | – | – | –
9 | COc1cc(C(=O)O[C@H](C(=O)NCCCCNC(=O)[C@@H](OC(=O)c2cc(OC)cc3c(C)cccc23)[C@]2(C)CO2)[C@]2(C)CO2)c2cccc(C)c2c1 | 3.05 | 0.118 | 0.233 | – | 3.64 | 0.676 | 0.73 | – | – | – | < 0.01 | 0.0203 | 1.5 | < 0.01 | 0.207 | < 0.0111 | 0.479 | > 100 | – | –
10 | C[C@]12CCC(=O)C[C@@H]1CC[C@@H]1[C@@H]2CC[C@]2(C)[C@@H](OC(=O)N(CCCl)N=O)CC[C@@H]12 | > 43.4 | 25.4 | 6.16 | – | 11.7 | > 41.6 | 15.9 | 19 | 24.1 | 2.69 | 1.32 | 1.05 | 0.377 | 0.145 | 3.53 | 1.11 | 2.13 | 16.9 | 4.3 | –
11 | COC(=O)[C@@]12C3=NO[C@]1(C(=O)OC)C(O[Si](C)(C)C(C)(C)C)[C@@H](OC(C)=O)[C@@H](OC(C)=O)[C@@H]2[C@@H](OCc1ccccc1)CC3 (some centres undefined) | > 100 | > 100 | > 100 | 89.6 | > 100 | > 100 | > 100 | > 100 | > 100 | – | – | – | – | – | – | – | – | – | – | –
12 | COc1ccc2c(c1)[n+]([O-])c(-c1ccccc1Cl)c(N)[n+]2[O-] | > 100 | > 100 | > 100 | – | – | > 100 | > 100 | > 100 | > 100 | – | – | – | – | – | – | – | – | – | – | –
13 | CC(=O)[CH-]C(=O)c1ccccc1.CC(=O)[CH-]C(=O)c1ccccc1.CC(=O)[CH-]C(=O)c1ccccc1.[Ga+3] | 51.5 | 48.3 | 65.6 | 48 | 30 | 30.4 | 48.9 | 55.8 | 19.5 | 16.9 | 20.2 | 23.4 | 16.4 | 9.64 | 20.4 | 23 | – | – | 2.61 | 29.1
14 | COC1/C(=C\C(C)=O)c2ccccc2N1C(C)=O (centres undefined) | > 100 | > 100 | – | > 100 | > 100 | > 100 | > 100 | > 100 | – | – | – | – | – | – | – | – | – | – | – | –
15 | CCN(CC)C(=S)SS(C)(=O)=O | 47.8 | 35.4 | 49.4 | 23.4 | 30 | 42.8 | – | 35.2 | 58.4 | – | – | – | – | – | – | – | – | – | – | –
16 | O=C(NCCNCCO)c1ccc(Nc2nc3ccccc3c3occc23)cc1 | 6.71 | 26.4 | 35.2 | – | 30.8 | 15.1 | 22.8 | 43.1 | – | 3.37 | 12.8 | 18.4 | 16.6 | 4.77 | 6.22 | 21.1 | 16.1 | 36.7 | – | –
17 | CCN(CC)c1c(C)nnn1C1OC(COC(C)=O)C(OC(C)=O)C(OC(C)=O)C1OC(C)=O (centres undefined) | > 100 | > 100 | > 100 | – | > 100 | > 100 | > 100 | 31.3 | > 100 | – | – | – | – | – | – | – | – | – | – | –
18 | CCN(CC)c1ccc(C2N3CCCCC3[C@@H]3c4[nH]c5ccccc5c4CCN23)cc1 (some centres undefined) | 61.3 | > 100 | 31.1 | 44.1 | 36.6 | > 100 | 71.4 | > 100 | 47.4 | – | – | – | – | – | – | – | – | – | – | –
19 | NC(=O)c1ncn(C2OC(CO)C(O)C2O)c1O (centres undefined) | > 100 | – | – | > 100 | > 100 | > 100 | > 100 | > 100 | > 100 | – | – | – | – | – | – | – | – | – | – | –
